Test results as given in paper PMC11869428 (Microbial Cell Factories, 2025).

Target: T1, GenP (Micromonospora echinospora, UniProt A0A1C4WLH3)
T1 sequence (A0A1C4WLH3 1-268): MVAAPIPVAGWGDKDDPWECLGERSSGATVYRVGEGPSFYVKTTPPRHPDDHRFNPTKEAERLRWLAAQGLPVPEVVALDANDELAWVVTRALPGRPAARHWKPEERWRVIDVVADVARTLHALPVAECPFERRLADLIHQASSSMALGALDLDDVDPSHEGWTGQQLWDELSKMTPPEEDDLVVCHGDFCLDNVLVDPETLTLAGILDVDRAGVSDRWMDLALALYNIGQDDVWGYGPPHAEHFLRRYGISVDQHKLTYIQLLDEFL
Assay: preparative phosphorylation, HPLC-ELSD
Format: biochemical
Settings: ATP […], MgCl2 […], Tris […] pH […] °C, […] h

`CN[C@@H]1[C@@H](O)[C@@H](O[C@@H]2[C@@H](O)[C@H](O[C@H]3O[C@H](CN)[C@@H](O)[C@H](O)[C@H]3N)[C@@H](N)C[C@H]2N)OC[C@]1(C)O` [JI-20A] was tested, and the “preparative phosphorylation, HPLC-ELSD” value was “JI-20A-P, JI-20Ba-P, and JI-20B-P were obtained through the catalysis of GenP”.
